Experiment [1] has as its system V79. Briefly: Mammalian cell cytotoxicity test in chinese hamster V79 cells (clonogenic cytotoxicity). In kind it is functional, cell-based.
Experiment [2] is described as follows: Antibacterial activity against five Gram-negative bacteria. Type of experiment: functional.
[3] abbreviates: Cricetulus griseus, V79, read-out: IC50.

Experimental findings from ChEMBL document CHEMBL1125556, “Fluoroquinolones: relationships between structural variations, mammalian cell cytotoxicity, and antimicrobial activity” (J Med Chem, 1992) are described below.

The IC50 is the concentration that inhibits the measured activity by half. A word on the MIC: it is the lowest concentration found to suppress growth.

Values after ≈ are worked out from the molar mass of the structure shown.

For `CCNCC1CCN(c2c(F)cc3c(=O)c(C(=O)O)cn(C4CC4)c3c2F)C1` (stereo in doubt; 26b) [PD-117558], the IC50 in experiment [1] (v79) was 11 µg/mL (≈ 28.1 µM).

Regarding `NC1CCN(c2c(F)cc3c(=O)c(C(=O)O)cn(C4CC4)c3c2C(F)(F)F)C1` (stereo in doubt; 45), the IC50 in experiment [1] (setting [3]) was determined as 300 µg/mL (≈ 751 µM). In addition, in experiment [2] (read-out: MIC), the MIC came to 0.2 µg/mL (≈ 0.501 µM).

In the case of `NC1CCN(c2nc3c(cc2F)c(=O)c(C(=O)O)cn3C2CC2)CC1`, the IC50 in experiment [1] (setting [3]) was 100 µg/mL (≈ 289 µM). In addition, in experiment [2] (read-out: MIC), the MIC was found to be 0.23 µg/mL (≈ 0.664 µM).

Take `COc1c(N2CCCC2)c(F)cc2c(=O)c(C(=O)O)cn(C3CC3)c12`: the IC50 in experiment [1] (setting [3]) was determined as 150 µg/mL (≈ 433 µM). Further, the MIC in experiment [2] (read-out: MIC) worked out at 0.3 µg/mL (≈ 0.866 µM).

`NC1CCN(c2cc3c(c(O)c2F)c(=O)c(C(=O)O)cn3C2CC2)C1` (centres undefined): the IC50 in experiment [1] (setting [3]) stood at 72 µg/mL (≈ 207 µM). Moreover, the MIC in experiment [2] (read-out: MIC) worked out at 0.04 µg/mL (≈ 0.115 µM).

As to `CC1CN(c2cc3c(cc2F)c(=O)c(C(=O)O)cn3C2CC2)CC(C)N1` (centres undefined), the IC50 in experiment [1] (setting [3]) was more than 500 µg/mL. The MIC in experiment [2] (read-out: MIC) turned out to be 0.08 µg/mL (≈ 0.223 µM).

As to `O=C(O)c1cn(C2CC2)c2cc(N3CCNCC3)c(F)cc2c1=O` [CIPROFLOXACIN], the IC50 in experiment [1] (setting [3]) and in experiment [1] (v79) was 380 µg/mL (≈ 1150 µM) in each case. For the same molecule, the MIC in experiment [2] and in experiment [2] (read-out: MIC) was 0.1 µg/mL (≈ 0.302 µM) each time.

Take `CC1CN(c2c(F)cc3c(=O)c(C(=O)O)cn(C4CC4)c3c2C(F)(F)F)CC(C)N1` (centres undefined): the IC50 in experiment [1] (setting [3]) was more than 500 µg/mL. For the same molecule, in experiment [2] (read-out: MIC), the MIC came out at 0.91 µg/mL (≈ 2.13 µM).

As to `C=Cn1cc(C(=O)O)c(=O)c2cc(F)c(N3CCC(N)C3)c(F)c21` (centres undefined), the IC50 in experiment [1] (setting [3]) was 310 µg/mL (≈ 925 µM). Besides, in experiment [2] (read-out: MIC), the MIC came out at 0.13 µg/mL (≈ 0.388 µM).

As for `CCNCC1CCN(c2nc3c(cc2F)c(=O)c(C(=O)O)cn3C2CC2)C1` (centres undefined), the 50% inhibitory concentration (IC50) in experiment [1] (setting [3]) was 160 µg/mL (≈ 427 µM). Moreover, the MIC in experiment [2] (read-out: MIC) was found to be 0.21 µg/mL (≈ 0.561 µM).

For `Nc1c(N2CCC(N)C2)c(F)cc2c(=O)c(C(=O)O)cn(C3CC3)c12` (centres undefined), the IC50 in experiment [1] (setting [3]) turned out to be 260 µg/mL (≈ 751 µM). Besides, the MIC in experiment [2] (read-out: MIC) amounted to 0.53 µg/mL (≈ 1.53 µM).

Turning to `CC1(CN)CCN(c2cc3c(cc2F)c(=O)c(C(=O)O)cn3C2CC2)C1` (centres undefined), in experiment [1] (setting [3]), the IC50 is 23 µg/mL (≈ 64 µM). The MIC in experiment [2] (read-out: MIC) worked out at 0.52 µg/mL (≈ 1.45 µM).

Regarding `NC1CCN(c2c(F)cc3c(=O)c(C(=O)O)cn(C4CC4)c3c2C(F)(F)F)CC1`, the IC50 in experiment [1] (setting [3]) amounted to 20 µg/mL (≈ 48.4 µM). For the same molecule, the MIC in experiment [2] (read-out: MIC) stood at 0.26 µg/mL (≈ 0.629 µM).

As to `CCn1cc(C(=O)O)c(=O)c2cc(F)c(N3CCN(C)CC3)cc21` [PEFLOXACIN], the MIC in experiment [2] (read-out: MIC) amounted to 0.07 µg/mL (≈ 0.21 µM).

With `NCC1CCN(c2c(F)cc3c(=O)c(C(=O)O)cn(C4CC4)c3c2Cl)C1` (centres undefined), in experiment [1] (setting [3]), the IC50 turned out to be 8 µg/mL (≈ 21.1 µM). The minimum inhibitory concentration (MIC) in experiment [2] (read-out: MIC) was determined as 0.06 µg/mL (≈ 0.158 µM).

In the case of `O=C(O)c1cn(C2CC2)c2nc(N3CCCC3)c(F)cc2c1=O`, the IC50 in experiment [1] (setting [3]) was 58 µg/mL (≈ 183 µM). Besides, in experiment [2] (read-out: MIC), the MIC came out at 0.26 µg/mL (≈ 0.819 µM).

As to `COc1c(N2CCC(N)C2)c(F)cc2c(=O)c(C(=O)O)cn(-c3ccc(F)cc3F)c12` (centres undefined), in experiment [1] (setting [3]), the IC50 turned out to be 290 µg/mL (≈ 669 µM). In addition, the minimum inhibitory concentration (MIC) in experiment [2] (read-out: MIC) is 0.35 µg/mL (≈ 0.808 µM).

Consider `O=C(O)c1cn(C2CC2)c2nc(N3CCNCC3)c(F)cc2c1=O`, for which, in experiment [1] (setting [3]), the IC50 is 120 µg/mL (≈ 361 µM). The MIC in experiment [2] (read-out: MIC) came to 0.09 µg/mL (≈ 0.271 µM).

Regarding `CC1(CN)CCN(c2nc3c(cc2F)c(=O)c(C(=O)O)cn3C2CC2)C1` (centres undefined), the half-inhibitory concentration (IC50) in experiment [1] (setting [3]) stood at 25 µg/mL (≈ 69.4 µM). Moreover, the MIC in experiment [2] (read-out: MIC) was found to be 0.35 µg/mL (≈ 0.971 µM).

On to `NC1CCN(c2c(F)c(F)c3c(=O)c(C(=O)O)cn(C4CC4)c3c2C(F)(F)F)C1` (centres undefined), for which the IC50 in experiment [1] (setting [3]) was 190 µg/mL (≈ 455 µM). Moreover, the MIC in experiment [2] (read-out: MIC) is 25 µg/mL (≈ 59.9 µM).

The molecule `CCNCC1CCN(c2cc3c(cc2F)c(=O)c(C(=O)O)cn3-c2ccc(F)cc2F)C1` (stereo in doubt; 17) displayed an IC50 in experiment [1] (v79) of 190 µg/mL (≈ 427 µM). For the same molecule, the MIC in experiment [2] stood at 0.8 µg/mL (≈ 1.8 µM).

Turning to `O=C(O)c1cn(C2CC2)c2c(F)c(N3CCNCC3)c(F)cc2c1=O`, in experiment [1] (setting [3]), the IC50 was 47 µg/mL (≈ 135 µM). The MIC in experiment [2] (read-out: MIC) was 0.07 µg/mL (≈ 0.2 µM).

Take `CNCC1(C)CCN(c2cc3c(cc2F)c(=O)c(C(=O)O)cn3C2CC2)C1` (centres undefined): the 50% inhibitory concentration (IC50) in experiment [1] (setting [3]) is 205 µg/mL (≈ 549 µM). Also, the MIC in experiment [2] (read-out: MIC) worked out at 0.4 µg/mL (≈ 1.07 µM).

Turning to `CNCC1(C)CCN(c2c(F)cc3c(=O)c(C(=O)O)cn(C4CC4)c3c2C(F)(F)F)C1` (centres undefined), the IC50 in experiment [1] (setting [3]) amounted to 230 µg/mL (≈ 521 µM). Moreover, the MIC in experiment [2] (read-out: MIC) was more than 30 µg/mL.

As to `NC1CCN(c2cc3c(cc2F)c(=O)c(C(=O)O)cn3C2CC2)C1` (stereo in doubt; 24a), the IC50 in experiment [1] (setting [3]) is 72 µg/mL (≈ 217 µM). In experiment [2] (read-out: MIC), the minimal inhibitory concentration (MIC) came out at 0.09 µg/mL (≈ 0.272 µM).

Consider `NC1CCN(c2c(F)cc3c(=O)c(C(=O)O)cn(-c4ccc(F)cc4F)c3c2C(F)(F)F)C1` (centres undefined), for which the IC50 in experiment [1] (setting [3]) stood at 99 µg/mL (≈ 210 µM). Moreover, in experiment [2] (read-out: MIC), the MIC was found to be 0.52 µg/mL (≈ 1.1 µM).

With `CCNCC1CCN(c2cc3c(c(N)c2F)c(=O)c(C(=O)O)cn3C2CC2)C1` (centres undefined), the IC50 in experiment [1] (setting [3]) turned out to be 61 µg/mL (≈ 157 µM). In addition, the MIC in experiment [2] (read-out: MIC) is 0.35 µg/mL (≈ 0.901 µM).

Take `O=C(O)c1cn(C2CC2)c2c(F)c(N3CCCC3)c(F)cc2c1=O`: the IC50 in experiment [1] (setting [3]) was 120 µg/mL (≈ 359 µM). Moreover, in experiment [2] (read-out: MIC), the MIC is 0.1 µg/mL (≈ 0.299 µM).

As to `O=C(O)c1cn(-c2ccc(F)cc2F)c2cc(N3CCNCC3)c(F)cc2c1=O`, the IC50 in experiment [1] (setting [3]) is more than 500 µg/mL. In addition, the MIC in experiment [2] (read-out: MIC) stood at 0.11 µg/mL (≈ 0.273 µM).

`CCNCC1CCN(c2c(F)c(NC)c3c(=O)c(C(=O)O)cn(C4CC4)c3c2F)C1` (centres undefined): the IC50 in experiment [1] (setting [3]) is 53 µg/mL (≈ 126 µM). Besides, the MIC in experiment [2] (read-out: MIC) turned out to be 0.69 µg/mL (≈ 1.64 µM).

For the molecule `COc1c(N2CC(C)NC(C)C2)c(F)cc2c(=O)c(C(=O)O)cn(C3CC3)c12` (centres undefined), the IC50 in experiment [1] (setting [3]) is more than 500 µg/mL. Also, the minimum inhibitory concentration (MIC) in experiment [2] (read-out: MIC) stood at 0.34 µg/mL (≈ 0.873 µM).

With `CCNCC1CCN(c2c(F)c(Cl)c3c(=O)c(C(=O)O)cn(C4CC4)c3c2Cl)C1` (centres undefined), in experiment [1] (setting [3]), the IC50 amounted to 270 µg/mL (≈ 610 µM). Also, the MIC in experiment [2] (read-out: MIC) is 0.6 µg/mL (≈ 1.36 µM).
